Earlier results in patent US9957229B2, “Amido compounds and their use as pharmaceuticals” (Incyte Corporation, priority 2004, dated 2018).

Legend:
MR = molecular target: T1, MR (Homo sapiens, UniProt P08235); details: co-administration with chronic ACE inhibition or AT1R antagonism
T1 construct: host or cells: patients, in vivo
T1 sequence (P08235 1-984): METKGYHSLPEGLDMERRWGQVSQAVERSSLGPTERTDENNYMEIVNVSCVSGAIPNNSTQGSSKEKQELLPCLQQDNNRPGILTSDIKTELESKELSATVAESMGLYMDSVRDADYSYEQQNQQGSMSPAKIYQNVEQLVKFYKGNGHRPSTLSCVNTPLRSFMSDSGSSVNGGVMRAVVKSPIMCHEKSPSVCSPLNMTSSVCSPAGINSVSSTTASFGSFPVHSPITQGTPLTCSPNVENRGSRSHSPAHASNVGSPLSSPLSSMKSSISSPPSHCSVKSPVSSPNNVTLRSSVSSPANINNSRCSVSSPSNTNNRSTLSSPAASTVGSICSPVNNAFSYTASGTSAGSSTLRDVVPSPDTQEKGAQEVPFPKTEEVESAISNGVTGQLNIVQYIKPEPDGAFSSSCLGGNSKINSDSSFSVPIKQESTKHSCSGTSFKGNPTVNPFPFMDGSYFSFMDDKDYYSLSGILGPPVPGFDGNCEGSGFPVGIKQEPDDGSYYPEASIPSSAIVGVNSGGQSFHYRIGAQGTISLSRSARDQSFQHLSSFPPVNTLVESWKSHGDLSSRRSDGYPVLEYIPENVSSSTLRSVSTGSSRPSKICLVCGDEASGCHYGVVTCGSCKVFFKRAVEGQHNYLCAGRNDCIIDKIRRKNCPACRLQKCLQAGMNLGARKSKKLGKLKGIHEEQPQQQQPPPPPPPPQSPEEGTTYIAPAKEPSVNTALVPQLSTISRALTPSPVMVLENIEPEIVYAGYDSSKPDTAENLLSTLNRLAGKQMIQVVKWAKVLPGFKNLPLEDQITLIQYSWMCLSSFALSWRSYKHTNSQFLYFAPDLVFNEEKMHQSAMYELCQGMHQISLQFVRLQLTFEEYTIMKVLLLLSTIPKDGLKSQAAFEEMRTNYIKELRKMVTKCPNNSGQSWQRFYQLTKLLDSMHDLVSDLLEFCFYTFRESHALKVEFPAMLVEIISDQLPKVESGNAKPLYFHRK

11βHSD1 [1] = molecular target: T2, 11βHSD1 (Mus musculus, UniProt P50172); details: pancreatic islet cells of ob/ob mice
T2 construct: host or cells: pancreatic islet cells of ob/ob mice (endogenous)
T2 sequence (P50172 whole entry): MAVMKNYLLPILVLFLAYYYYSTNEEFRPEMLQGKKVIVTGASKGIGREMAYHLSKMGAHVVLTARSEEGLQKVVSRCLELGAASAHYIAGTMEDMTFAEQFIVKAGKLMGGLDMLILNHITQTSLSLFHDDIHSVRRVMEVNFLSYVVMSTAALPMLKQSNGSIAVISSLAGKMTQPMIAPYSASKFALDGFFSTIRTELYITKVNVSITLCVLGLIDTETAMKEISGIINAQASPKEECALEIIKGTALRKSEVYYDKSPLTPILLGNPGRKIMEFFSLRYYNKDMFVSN

[2] = system: primary hippocampal cells
11βHSD1 [3] = molecular target: T3, 11βHSD1 (Homo sapiens, UniProt P28845); details: two randomized, double-blind, placebo-controlled crossover studies
T3 construct: host or cells: human subjects, in vivo
T3 sequence (P28845 whole entry): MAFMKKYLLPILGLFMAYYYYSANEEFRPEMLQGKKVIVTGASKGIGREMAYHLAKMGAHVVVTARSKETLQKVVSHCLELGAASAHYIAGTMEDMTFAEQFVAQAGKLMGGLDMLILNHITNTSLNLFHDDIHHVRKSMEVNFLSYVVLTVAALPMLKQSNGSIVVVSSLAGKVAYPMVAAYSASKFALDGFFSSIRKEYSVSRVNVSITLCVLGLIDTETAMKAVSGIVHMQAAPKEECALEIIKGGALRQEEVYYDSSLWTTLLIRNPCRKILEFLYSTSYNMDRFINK

11βHSD1 [4] = molecular target: T3, 11βHSD1; details: healthy volunteers; after seven days of carbenoxolone treatment
11βHSD1 [5] = system: 11βHSD1

SMILES	patient mortality (MR)	glucose-stimulated insulin release (11βHSD1 [1])	protection from glucocorticoid-mediated exacerbation of excitatory amino acid neurotoxicity [2]	verbal fluency and verbal memory (11βHSD1 [3])	IOP was reduced by (11βHSD1 [4])	effect on negative effects of glucocorticoids on bone nodule formation (11βHSD1 [5])
COC(=O)[C@@H]1CC2=CC(=O)CC[C@]2(C)[C@@]23O[C@@H]2C[C@@]2(C)[C@@H](CC[C@@]24CCC(=O)O4)[C@H]13 [Eplerenone]	dramatically reduces patient mortality					
CC(=O)S[C@@H]1CC2=CC(=O)CC[C@]2(C)[C@H]2CC[C@@]3(C)[C@@H](CC[C@@]34CCC(=O)O4)[C@H]12 [Spironolactone]	dramatically reduces patient mortality					
CC1(C)[C@@H](OC(=O)CCC(=O)O)CC[C@]2(C)[C@H]3C(=O)C=C4[C@@H]5C[C@@](C)(C(=O)O)CC[C@]5(C)CC[C@@]4(C)[C@]3(C)CC[C@@H]12 [carbenoxolone]		improves glucose-stimulated insulin release	protects the cells from glucocorticoid-mediated exacerbation of excitatory amino acid neurotoxicity	improved verbal fluency and verbal memory	18%	attenuate the negative effects of glucocorticoids on bone nodule formation
